Test results: paper PMC11488110 (Theranostics, 2024)
pEC50: −log10 of the molar value.

Assays:
Format in all cases: cell-based
hPPARδ = molecular target: T1, hPPARδ (Homo sapiens, UniProt Q03181); assay: In vitro co-transfection (PPRE-luciferase) assay in CV-1 cells, hPPARδ
T1 construct: expressed in transfected cells; host or cells: CV-1 monkey kidney cells
T1 sequence (Q03181 1-441): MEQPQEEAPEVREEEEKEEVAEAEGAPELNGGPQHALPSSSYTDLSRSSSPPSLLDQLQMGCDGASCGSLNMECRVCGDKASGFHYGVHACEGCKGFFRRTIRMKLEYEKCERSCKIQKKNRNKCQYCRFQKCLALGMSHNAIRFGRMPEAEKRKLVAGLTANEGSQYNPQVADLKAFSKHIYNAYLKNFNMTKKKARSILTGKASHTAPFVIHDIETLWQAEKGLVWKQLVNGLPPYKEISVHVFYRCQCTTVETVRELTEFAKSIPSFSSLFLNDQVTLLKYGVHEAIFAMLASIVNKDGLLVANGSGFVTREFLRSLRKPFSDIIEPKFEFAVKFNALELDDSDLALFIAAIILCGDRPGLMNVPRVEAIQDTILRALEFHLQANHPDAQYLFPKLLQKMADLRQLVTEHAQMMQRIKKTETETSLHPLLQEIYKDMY

hPPARγ = molecular target: T2, hPPARγ (Homo sapiens, UniProt P37231); assay: In vitro co-transfection (PPRE-luciferase) assay in CV-1 cells, hPPARγ; details: 24 h, read-out: Potency (EC50) hPPARγ
T2 sequence (P37231 1-505): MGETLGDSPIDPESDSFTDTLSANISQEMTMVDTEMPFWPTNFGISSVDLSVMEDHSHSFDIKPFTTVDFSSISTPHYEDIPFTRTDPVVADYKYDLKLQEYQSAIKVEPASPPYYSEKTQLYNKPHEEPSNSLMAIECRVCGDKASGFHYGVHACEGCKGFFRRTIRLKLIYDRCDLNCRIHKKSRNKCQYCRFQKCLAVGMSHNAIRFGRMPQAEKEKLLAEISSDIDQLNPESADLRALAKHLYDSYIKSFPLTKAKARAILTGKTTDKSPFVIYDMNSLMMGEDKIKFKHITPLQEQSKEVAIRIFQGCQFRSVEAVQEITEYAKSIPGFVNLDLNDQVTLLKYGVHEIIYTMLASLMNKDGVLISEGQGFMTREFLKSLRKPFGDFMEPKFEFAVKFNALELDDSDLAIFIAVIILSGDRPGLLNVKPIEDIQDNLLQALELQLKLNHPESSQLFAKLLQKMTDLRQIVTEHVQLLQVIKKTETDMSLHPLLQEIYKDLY

hPPARα = molecular target: T3, hPPARα (Homo sapiens, UniProt Q07869); assay: In vitro co-transfection (PPRE-luciferase) assay in CV-1 cells, hPPARα; details: 24 h, read-out: Potency (EC50) hPPARα
T3 sequence (Q07869 1-468): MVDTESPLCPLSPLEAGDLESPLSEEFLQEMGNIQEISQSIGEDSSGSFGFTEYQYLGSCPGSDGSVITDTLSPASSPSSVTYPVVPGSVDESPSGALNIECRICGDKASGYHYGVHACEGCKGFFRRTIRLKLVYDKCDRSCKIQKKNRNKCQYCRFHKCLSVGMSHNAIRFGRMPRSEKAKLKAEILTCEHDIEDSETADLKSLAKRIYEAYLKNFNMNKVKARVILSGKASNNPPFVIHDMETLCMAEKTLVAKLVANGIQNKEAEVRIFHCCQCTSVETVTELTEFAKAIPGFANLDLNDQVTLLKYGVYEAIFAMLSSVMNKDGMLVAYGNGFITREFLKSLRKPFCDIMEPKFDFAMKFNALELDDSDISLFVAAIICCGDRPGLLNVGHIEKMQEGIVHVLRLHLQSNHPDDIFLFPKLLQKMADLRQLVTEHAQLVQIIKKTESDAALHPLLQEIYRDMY

primary mouse astrocytes = assay: Cytotoxicity assay (EZ-Cytox) in primary mouse astrocytes; details: up to 30 μM, 24 h

Row | Structure (SMILES) | pEC50 (hPPARδ; co-transfection assay, CV-1 cells, 24 h, read-out: Potency (EC50) hPPARδ) | Selectivity index hPPARα/hPPARδ (hPPARδ; ratio EC50(hPPARα)/EC50(hPPARδ)) | Selectivity index hPPARγ/hPPARδ (hPPARδ; ratio EC50(hPPARγ)/EC50(hPPARδ)) | pEC50 (hPPARγ) | pEC50 (hPPARα) | Cytotoxicity in primary astrocytes (primary mouse astrocytes)
1 | Cc1cc([Se]Cc2[se]c(-c3ccc(C(F)(F)F)cc3)nc2C)ccc1OCC(=O)O [Compound 5b, {2-Methyl-4-[4-methyl-2-(4-trifluoromethyl-phenyl)-selenazol-5-yl-methylselanyl]-phenoxy}-acetic acid] | 8.37 | >2300 | >2300 | < 5.00 | < 5.00 | –
2 | Cc1cc(SCc2sc(-c3ccc(C(F)(F)F)cc3)nc2C)ccc1OCC(=O)O [GW501516, reference compound] | – | – | – | – | – | no cytotoxicity
